Measured values from US10500209B2, “Quinazolinones as bromodomain inhibitors” (Zenith Epigenetics Ltd., priority 2013, dated 2019).

Legend:
human AML MV-4-11 cells = assay: Inhibition of cell proliferation in cancer cell lines (CellTiter Aqueous One); format: cell-based; parameters: key: Active: Compounds with an IC50 value less than 30 μM were deemed to be active.; Not Active: Compounds with an IC50 value less than 30 μM were deemed to be active; settings: 72 h
Procedure: MV4-11 cells: 96-well plates were seeded with 5×10^4 cells per well of exponentially growing human AML MV-4-11 (CRL-9591) cells and immediately treated with two-fold dilutions of test compounds, ranging from 30 μM to 0.2 μM. Triplicate wells were used for each concentration, as well as a media only and three DMSO control wells. The cells and compounds were incubated at 37° C., 5% CO2 for 72 h before adding 20 μL of the CellTiter Aqueous One Solution (Promega) to each well and incubating at 37° C., 5% CO2 for an additional 3-4 h. The absorbance was taken at 490 nm in a spectrophotometer and the percentage of proliferation relative to DMSO-treated cells was calculated after correction from the blank well. IC50 were calculated using the GraphPad Prism software.

[1] = biological target: T1, Brd4 bromodomain 1 (BRD4(1)) (Homo sapiens, UniProt O60885); assay: Inhibition of tetra-acetylated histone H4 binding to BET bromodomains (TR-FRET); parameters: key: Active: Compounds with an IC50 value less than 30 μM were deemed to be active.; Not Active: Compounds with an IC50 value less than 30 μM were deemed to be active; settings: first bromodomain of Brd4, tetra-acetylated histone H4 peptide
T1 construct: made in house; host or cells: E. coli BL21(DE3)
Procedure: Proteins were cloned and overexpressed with a N-terminal 6×His tag, then purified by nickel affinity followed by size exclusion chromatography. Briefly, E. coli BL21(DE3) cells were transformed with a recombinant expression vector encoding N-terminally Nickel affinity tagged bromodomains from Brd2, Brd3, Brd4. Cell cultures were incubated at 37° C. with shaking to the appropriate density and induced overnight with IPTG. The supernatant of lysed cells was loaded onto Ni-IDA column for purification. Eluted protein is pooled, concentrated and further purified by size exclusion chromatography. Fractions representing monomeric protein were pooled, concentrated, aliquoted, and frozen at −80° C. for use in subsequent experiments.
Binding of tetra-acetylated histone H4 and BET bromodomains was confirmed by a Time Resolved Fluorescence Resonance Energy Transfer (TR-FRET) method. N-terminally His-tagged bromodomains (200 nM) and biotinylated tetra-acetylated histone H4 peptide (25-50 nM, Millipore) were incubated in the presence of Europium Cryptate-labeled streptavidin (Cisbio Cat. #610SAKLB) and XL665-labeled monoclonal anti-His antibody (Cisbio Cat. #61HISXLB) in a white 96 well microtiter plate (Greiner). For inhibition assays, serially diluted test compound was added to these reactions in a 0.2% final concentration of DMSO. Final buffer concentrations were 30 mM HEPES pH 7.4, 30 mM NaCl, 0.3 mM CHAPS, 20 mM phosphate pH 7.0, 320 mM KF, 0.08% BSA). After a 2-h incubation at room temperature, the fluorescence by FRET was measured at 665 and 620 nm by a SynergyH4 plate reader (Biotek). The binding inhibitory activity was shown by a decrease in 665 nm fluorescence relative to 620 nm. IC50 values were determined from a dose response curve.

c-myc in MV4-11 cells = assay: Inhibition of c-myc expression in cancer cell lines (mRNA, real-time PCR); format: cell-based, Human; parameters: key: Active: Compounds with an IC50 value less than 30 μM were deemed to be active.; Not Active: Compounds with an IC50 value less than 30 μM were deemed to be active; settings: 3 h
Procedure: MV4-11 cells (2.5×10^4 cells) were plated in 96 well U-bottom plates with test compound or DMSO (0.1%), and incubated for 3 h at 37° C. Cells were then harvested by centrifugation, lysed, and mRNA was isolated using the mRNA catcher plus kit (Invitrogen). Reverse transcription of the mRNA and duplex amplification of the c-myc and cyclophilin cDNAs was performed using the RNA Ultrasense kit (Invitrogen) and a ViiA7 real-time PCR machine (Applied Biosystems). IC50 values were determined from a dose response curve.

hIL-6 mRNA = assay: Inhibition of hIL-6 mRNA transcription in LPS-stimulated U937 macrophages; format: cell-based, human; parameters: key: Active: Compounds with an IC50 value less than 30 μM were deemed to be active.; Not Active: Compounds with an IC50 value less than 30 μM were deemed to be active; settings: U937 cells differentiated with PMA, LPS stimulation, 3 h
Procedure: In this example, hIL-6 mRNA in tissue culture cells was quantitated to measure the transcriptional inhibition of hIL-6 when treated with a compound of the present disclosure.
A human leukemic monocyte lymphoma cell line (U937) was plated (3.2×10^4 cells per well) in a 96-well plate in 100 μL RPMI-1640 containing 10% FBS and penicillin/streptomycin, and differentiated into macrophages for 3 days in 60 ng/mL PMA ([…]) at 37° C. in 5% CO2 prior to the addition of the compound of interest. The cells were pretreated for 1 h with the test compound prior to stimulation with 1 ug/mL lipopolysaccharide from Escherichia coli. The cells were incubated at 37° C. for 3 h before the cells were harvested. At time of harvest, the spent media was removed from the cells and the cells were rinsed in 200 μL PBS. Cell lysis solution (70 μL) was added the cells in each well and incubated for 5-10 min at room temperature, to allow for complete cell lysis and detachment. mRNA was then prepared using the “mRNA Catcher PLUS plate” (Invitrogen), according to the protocol supplied. After the last wash, as much wash buffer as possible was aspirated without allowing the wells to dry. Elution buffer (E3, 70 μL) was then added to each well. mRNA was then eluted by incubating the mRNA Catcher PLUS plate with Elution Buffer for 5 min at 68° C. and then immediately placing the plate on ice.
The eluted mRNA isolated was then used in a one-step quantitative real-time PCR reaction, using components of the Ultra Sense Kit together with Applied Biosystems primer-probe mixes. Real-time PCR data was analyzed, normalizing the Ct values for hIL-6 to an internal control, prior to determining the fold induction of each unknown sample, relative to the control.

Row | melting point | Cell Proliferation activity (IC50 < 30 μM) (human AML MV-4-11 cells) | FRET activity BRD4(1) [1] | c-myc activity (IC50 < 30 μM) (c-myc in MV4-11 cells) | IL-6 activity (IC50 < 30 μM) (hIL-6 mRNA) | SMILES
1 | 178 to 181 °C | Active | Active | Active |  | COc1cc(OC)c2c(=O)[nH]c(-c3ncc(OCCNC(C)C)cc3NC3CCN(C(C)C)CC3)nc2c1 [Example 67, 2-{5-[2-(Isopropylamino)ethoxy]-3-(1-isopropylpiperidin-4-ylamino)pyridin-2-yl}-5,7-dimethoxyquinazolin-4(3H)-one]
2 | 231 to 233 °C | Active | Active | Active |  | COc1cc(OC)c2c(=O)[nH]c(-c3ncc(OCCO)cc3NC3CCN(C(C)C)CC3)nc2c1 [Example 62, 2-[5-(2-Hydroxyethoxy)-3-(l-isopropylpiperidin-4-ylamino)pyridin-2-yl]-5,7-dimethoxyquinazolin-4(3H)-one]
3 | 220 to 221 °C | Active | Active | Active |  | COc1cc(OC)c2c(=O)[nH]c(-c3ncccc3NC3CCN(CC(C)(C)O)CC3)nc2c1 [Example 59, 2-(3-((1-(2-Hydroxy-2-methylpropyl)piperidin-4-yl)amino)pyridin-2-yl)-5,7-dimethoxyquinazolin-4(3H)-one]
4 | 220 to 222 °C | Active | Active | Active |  | COc1ccc(CNc2cc(OC)c3c(=O)[nH]c(-c4ncccc4NC4CCN(C(C)C)CC4)nc3c2)cc1 [Example 61, 2-(3-((1-Isopropylpiperidin-4-yl)amino)pyridin-2-yl)-5-methoxy-7-((4-methoxybenzyl)amino)quinazolin-4(3H)-one]
5 |  |  | Active |  | Active | COc1cc(OC)c2c(=O)[nH]c(-c3ncc(OCCNC4CCN(C(C)C)CC4)cc3NC3CCN(C(C)C)CC3)nc2c1 [Example 50, 2-(3-((1-Isopropylpiperidin-4-yl)amino)-5-(2-((1-isopropylpiperidin-4-yl)amino)ethoxy)pyridin-2-yl)-5,7-dimethoxyquinazolin-4(3H)-one]
6 | 195 to 197 °C | Active | Active | Active |  | COc1cc(OC)c2c(=O)[nH]c(-c3ncccc3NC3CCN(C(=O)N(C)C)CC3)nc2c1 [Example 42, 4-((2-(5,7-Dimethoxy-4-oxo-3,4-dihydroquinazolin-2-yl)pyridin-3-yl)amino)-N,N-dimethylpiperidine-1-carboxamide]
7 | 166 to 169 °C | Active | Active | Active |  | COc1cc(OC)c2c(=O)[nH]c(-c3ncc(OCCN4CCCC4)cc3NC3CCN(C(C)C)CC3)nc2c1 [Example 66, 2-{3-(1-Isopropylpiperidin-4-ylamino)-5-[2-(pyrrolidin-1-yl)ethoxy]pyridin-2-yl}-5,7-dimethoxyquinazolin-4(3H)-one]

More lines, now with the values behind:

Row | SMILES | melting point | Cell Proliferation activity (IC50 < 30 μM) (human AML MV-4-11 cells) | FRET activity BRD4(1) [1] | c-myc activity (IC50 < 30 μM) (c-myc in MV4-11 cells) | IL-6 activity (IC50 < 30 μM) (hIL-6 mRNA)
8 | COc1ccc(-c2nc3cc(OC)cc(OC)c3c(=O)[nH]2)c(NCCCN2CCN(C)CC2)c1 [Example 21] | 220 to 222 °C | Active | Active | Active | 
9 | COc1ccc(-c2nc3cc(OC)cc(OC)c3c(=O)[nH]2)c(NCCN2CCOCC2)c1 [Example 14, 5,7-Dimethoxy-2-(4-methoxy-2-((2-morpholinoethyl)amino)phenyl)-quinazolin-4(3H)-one] | 239 to 240 °C | Not Active | Active |  | 
10 | COc1ccc(-c2nc3cc(OC)cc(OC)c3c(=O)[nH]2)c(NC2CCOCC2)c1 [Example 9, 5,7-dimethoxy-2-(4-Methoxy-2-((tetrahydro-2H-pyran-4-yl)amino)-phenyl)quinazolin-4(3H)-one] | 286 to 287 °C | Not Active | Active |  | 
11 | COc1ccc(-c2nc3cc(OC)cc(OC)c3c(=O)[nH]2)c(NCCCN2CCCC2)c1 [Example 15, 5,7-Dimethoxy-2-(4-methoxy-2-((3-(pyrrolidin-1-yl)propyl)amino)phenyl)quinazolin-4(3H)-one] |  | Active | Active | Active | 
12 | COc1ccc(-c2nc3cc(OC)cc(OC)c3c(=O)[nH]2)c(NCC2CCN(C(C)C)C2)c1 (stereo not shown) [Example 16, 2-(2-(((1-Isopropylpyrrolidin-3-yl)methyl)amino)-4-methoxyphenyl)-5,7-dimethoxyquinazolin-4(3H)-one] | 228 to 230 °C | Active | Active | Active | 
13 | COc1ccc(-c2nc3cc(OC)cc(OC)c3c(=O)[nH]2)c(NCC2CCCN2C(C)C)c1 (stereo not shown) [Example 17, 2-(2-(((1-Isopropylpyrrolidin-2-yl)methyl)amino)-4-methoxyphenyl)-5,7-dimethoxyquinazolin-4(3H)-one] | 207 to 209 °C |  | Active | Active | 
14 | COc1cnc(-c2nc3cc(OC)cc(OC)c3c(=O)[nH]2)c(NC2CCN(C(C)C)CC2)c1 [Example 30, 2-(3-((1-Isopropylpiperidin-4-yl)amino)-5-methoxypyridin-2-yl)-5,7-dimethoxyquinazolin-4(3H)-one] | 207 to 208 °C | Active | Active |  | 
15 | COc1ccc(-c2nc3cc(OC)cc(OC)c3c(=O)[nH]2)c([S+]([O-])C2CCN(C)CC2)c1 (stereo not shown) [Example 23, 5,7-Dimethoxy-2-[4-methoxy-2-(1-methylpiperidin-4-ylsulfinyl)phenyl]quinazolin-4(3H)-one] | 263 to 265 °C | Not Active | Active |  | 
